Data from US20230399312A1, “SUBSTITUTED PYRIMIDINES AND METHODS OF USE” (THERAVANCE BIOPHARMA R&D IP, LLC, priority 2020, published 2023).

Experiments:
[1] = target: T1, recombinant human ALK5 (TGF-βR1) protein (Homo sapiens, UniProt P36897); experiment: Biochemical ALK5 (TGF-βR1) assay to measure pKi (LANCE Ultra ULight kinase assay); details: apparent pKi, converted from pIC50 by Cheng-Prusoff
T1 construct: purchased Life Technologies PR9075A
T1 sequence (P36897 34-503): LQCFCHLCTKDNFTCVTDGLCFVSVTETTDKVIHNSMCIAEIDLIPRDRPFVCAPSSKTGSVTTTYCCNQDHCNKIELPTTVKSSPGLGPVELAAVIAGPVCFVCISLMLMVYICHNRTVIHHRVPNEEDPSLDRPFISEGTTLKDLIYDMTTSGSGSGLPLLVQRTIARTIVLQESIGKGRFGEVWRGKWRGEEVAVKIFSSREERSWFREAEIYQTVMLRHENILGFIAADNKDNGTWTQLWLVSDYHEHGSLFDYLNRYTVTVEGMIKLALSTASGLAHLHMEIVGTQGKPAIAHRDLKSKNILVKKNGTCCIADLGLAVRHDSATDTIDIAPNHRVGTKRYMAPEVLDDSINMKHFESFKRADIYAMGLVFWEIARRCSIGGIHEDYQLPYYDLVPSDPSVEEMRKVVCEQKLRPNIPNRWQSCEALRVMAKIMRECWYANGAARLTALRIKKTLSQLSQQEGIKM
Method in brief: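 Dose-response series of each compound were preincubated with the kinase for 60 minutes at room temperature. Phosphorylation proceeded for 60 minutes at 37 °C after ATP addition, was quenched with EDTA, and was detected with a europium anti-phospho-Thr1342 antibody by TR-FRET; pKi was calculated from pIC50.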

[2] = test system: TGF-β-stimulated SMAD3 phosphorylation in BEAS-2B cells; experiment: Cellular ALK5 potency assay, inhibition of TGF-β stimulated pSMAD3 formation in BEAS-2B cells; type: cell-based; details: Homo sapiens, pSMAD3, TGF-β 10 ng/mL, read-out: BEAS2B pIC50 (converted)
Method in brief: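 BEAS-2B cells, HBSS/25 mM HEPES/1% BSA buffer; cpd 1 h, 37 °C; TGF-β 10 ng/mL final, 30 min; lysis, AlphaLISA pSMAD3 read next day. pIC50 vs stimulated no-compound baseline.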

SMILES | Ki [1] | IC50 [2]
Cc1cccc(-c2nccc(Nc3ccnc(Nc4ccc(CN5CC(C(=O)OC6CNC6)C5)cc4)n3)n2)n1 [Compound 167, azetidin-3-yl 1-[[4-[[4-[[2-(6-methyl-2-pyridyl)pyrimidin-4-yl]amino]pyrimidin-2-yl]amino]phenyl]methyl] azetidine-3-carboxylate] | 0.0398 to 0.316 nM | 25.1 to 158 nM
Cc1cccc(-c2nccc(Nc3ccnc(Nc4cccc(NC(=O)NC5CCNC5)c4)n3)n2)n1 (centres unmarked) [Compound 168, 1-[3-[[4-[[2-(6-methyl-2-pyridyl)pyrimidin-4-yl]amino]pyrimidin-2-yl]amino]phenyl]-3-pyrrolidin-3-yl-urea] | 0.0398 to 0.316 nM | 25.1 to 158 nM
COCCn1cc(-c2ccc(Nc3nccc(Nc4ccnc(-c5cccc(C)n5)n4)n3)cc2)cn1 [Compound 169, N2-[4-[1-(2-methoxyethyl)pyrazol-4-yl]phenyl]-N4-[2-(6-methyl-2-pyridyl)pyrimidin-4-yl]pyrimidine-2,4-diamine] | 0.398 to 3.16 nM | 25.1 to 158 nM
Cc1ccc(Nc2nccc(Nc3ccnc(-c4cccc(C)n4)n3)n2)cc1 [Compound 170, N4-[2-(6-methyl-2-pyridyl)pyrimidin-4-yl]-N2-(p-tolyl)pyrimidine-2,4-diamine] | 0.398 to 3.16 nM | 25.1 to 158 nM
COC(=O)C1CN(CCNc2ccc(Nc3nccc(Nc4ccnc(-c5cccc(C)n5)n4)n3)cc2)CCN1C(C)C (centres unmarked) [Compound 171, methyl 1-isopropyl-4-[2-[4-[[4-[[2-(6-methyl-2-pyridyl)pyrimidin-4-yl]amino]pyrimidin-2-yl]amino]anilino]ethyl] piperazine-2-carboxylate] | 0.398 to 3.16 nM | 25.1 to 158 nM
COC(=O)[C@H]1CN(c2ccc(Nc3nccc(Nc4ccnc(-c5cccc(C)n5)n4)n3)cc2)CCN1 [Compound 172, methyl (2R)-4-[4-[[4-[[2-(6-methyl-2-pyridyl)pyrimidin-4-yl]amino]pyrimidin-2-yl]amino]phenyl]piperazine-2-carboxylate] | 0.0398 to 0.316 nM | 25.1 to 158 nM
Cc1cccc(-c2nccc(Nc3ccnc(Nc4ccc(N5CCCC(C(=O)OC6CNC6)C5)cc4)n3)n2)n1 (centres unmarked) [Compound 173, azetidin-3-yl 1-[4-[[4-[[2-(6-methyl-2-pyridyl)pyrimidin-4-yl]amino]pyrimidin-2-yl]amino]phenyl]piperidine-3-carboxylate] | 0.0398 to 0.316 nM | 25.1 to 158 nM
Cc1cccc(-c2nccc(Nc3ccnc(Nc4ccc(CN5CC(C(=O)O[C@H]6CCNC6)C5)cc4)n3)n2)n1 [Compound 174, [(3S)-pyrrolidin-3-yl] 1-[[4-[[4-[[2-(6-methyl-2-pyridyl)pyrimidin-4-yl]amino]pyrimidin-2-yl]amino]phenyl]methyl] azetidine-3-carboxylate] | 0.0398 to 0.316 nM | 25.1 to 158 nM
Cc1cccc(-c2nccc(Nc3ccnc(Nc4ccc5c(c4)CNCC5)n3)n2)n1 [Compound 175, N4-(2-(6-methylpyridin-2-yl)pyrimidin-4-yl)-N2-(1,2,3,4-tetrahydroisoquinolin-7-yl)pyrimidine-2,4-diamine] | ≤ 0.0316 nM | 25.1 to 158 nM
CNC1CCN(S(=O)(=O)c2cccc(Nc3nccc(Nc4ccnc(-c5cccc(C)n5)n4)n3)c2)CC1 [Compound 176, N2-[3-[[4-(methylamino)-1-piperidyl]sulfonyl]phenyl]-N4-[2-(6-methyl-2-pyridyl)pyrimidin-4-yl]pyrimidine-2,4-diamine] | 0.398 to 3.16 nM | 25.1 to 158 nM
Cc1cccc(-c2nccc(Nc3ccnc(Nc4ccc(CN5CC6CCCC(C5)N6)cc4)n3)n2)n1 [Compound 177, N2-[4-(3,9-diazabicyclo[3.3.1]nonan-3-ylmethyl)phenyl]-N4-[2-(6-methyl-2-pyridyl)pyrimidin-4-yl]pyrimidine-2,4-diamine] | 0.0398 to 0.316 nM | 25.1 to 158 nM
Cc1cccc(-c2nccc(Nc3ccnc(Nc4cccc(C(=O)OCC5CNC5)c4)n3)n2)n1 [Compound 178, azetidin-3-ylmethyl 3-((4-((2-(6-methylpyridin-2-yl)pyrimidin-4-yl)amino)pyrimidin-2-yl)amino)benzoate] | 0.398 to 3.16 nM | 25.1 to 158 nM
Cc1ccc(O)cc1-c1nccc(Nc2ccnc(Nc3ccc(N4CCNCC4)cc3)n2)n1 [Compound 179, 4-methyl-3-[4-[[2-(4-piperazin-1-ylanilino)pyrimidin-4-yl]amino]pyrimidin-2-yl]phenol] | 0.398 to 3.16 nM | 25.1 to 158 nM
Cc1cccc(-c2nccc(Nc3ccnc(Nc4ccc(NC(=O)C5(O)CNC5)cc4)n3)n2)n1 [Compound 180, 3-hydroxy-N-[4-[[4-[[2-(6-methyl-2-pyridyl)pyrimidin-4-yl]amino]pyrimidin-2-yl]amino]phenyl]azetidine-3-carboxamide] | 0.0398 to 0.316 nM | 25.1 to 158 nM
Cc1cccc(-c2nccc(Nc3ccnc(Nc4cnn(CC5CNC5)c4)n3)n2)n1 [Compound 181, N2-[1-(azetidin-3-ylmethyl)pyrazol-4-yl]-N4-[2-(6-methyl-2-pyridyl)pyrimidin-4-yl]pyrimidine-2,4-diamine] | 0.0398 to 0.316 nM | 200 to 1260 nM
Cc1cccc(-c2nccc(Nc3ccnc(Nc4ccc(CN5CCC[C@@H](C(=O)OCC6CN(C)C6)C5)cc4)n3)n2)n1 [Compound 182, (1-methylazetidin-3-yl)methyl (3R)-1-[[4-[[4-[[2-(6-methyl-2-pyridyl)pyrimidin-4-yl]amino]pyrimidin-2-yl]amino]phenyl]methyl] piperidine-3-carboxylate] | 0.0398 to 0.316 nM | 25.1 to 158 nM
Cc1cccc(-c2nccc(Nc3ccnc(Nc4ccc(CN5CCN[C@@H](CO)C5)cc4)n3)n2)n1 [Compound 183, [(2R)-4-[[4-[[4-[[2-(6-methyl-2-pyridyl)pyrimidin-4-yl]amino]pyrimidin-2-yl]amino]phenyl]methyl]piperazin-2-yl]methanol] | 0.0398 to 0.316 nM | 25.1 to 158 nM
Cc1cccc(-c2nccc(Nc3ccnc(Nc4cc(F)c(NC(=O)C5CCNCC5)c(Cl)c4)n3)n2)n1 [Compound 184, N-[2-chloro-6-fluoro-4-[[4-[[2-(6-methyl-2-pyridyl)pyrimidin-4-yl]amino]pyrimidin-2-yl]amino]phenyl]piperidine-4-carboxamide] | 0.0398 to 0.316 nM | 25.1 to 158 nM
Cc1cccc(-c2nccc(Nc3ccnc(Nc4ccc(N5CCC(C(=O)O[C@H]6CCNC6)CC5)cc4)n3)n2)n1 [Compound 185, [(3S)-pyrrolidin-3-yl] 1-[4-[[4-[[2-(6-methyl-2-pyridyl)pyrimidin-4-yl]amino]pyrimidin-2-yl]amino]phenyl]piperidine-4-carboxylate] | 0.0398 to 0.316 nM | 25.1 to 158 nM
Cc1cccc(-c2nccc(Nc3ccnc(Nc4ccc(N5CC(CN)C5)cc4)n3)n2)n1 [Compound 186, N2-[4-[3-(aminomethyl)azetidin-1-yl]phenyl]-N4-[2-(6-methyl-2-pyridyl)pyrimidin-4-yl]pyrimidine-2,4-diamine] | 0.0398 to 0.316 nM | 25.1 to 158 nM
Cc1cccc(-c2nccc(Nc3ccnc(Nc4ccc(CN)cc4)n3)n2)n1 [Compound 187, N2-[4-(aminomethyl)phenyl]-N4-[2-(6-methyl-2-pyridyl)pyrimidin-4-yl]pyrimidine-2,4-diamine] | 0.0398 to 0.316 nM | 25.1 to 158 nM
Cc1cccc(-c2nccc(Nc3ccnc(Nc4csc(C(=O)N5CCNCC5)c4)n3)n2)n1 [Compound 188, [4-[[4-[[2-(6-methyl-2-pyridyl)pyrimidin-4-yl]amino]pyrimidin-2-yl]amino]-2-thienyl]-piperazin-1-yl-methanone] | ≤ 0.0316 nM | 25.1 to 158 nM
